Measured values: patent US8853246B2 (Dow AgroSciences LLC, priority 2009, dated 2014)
Read-outs that look alike come from different tables or passages of the source.

What was measured:
[1] = tested on: Cotton Aphid (Aphis Gossypii); experiment: Insecticidal test for cotton aphid in foliar spray assay (col. APHIGO); format: in vivo; details: for pest or weed control at 200 ppm: Aphis gossypii, 72 h, read-out: APHIGO 200 ppm (Corrected % Control, rating)
Description: The compounds were tested against cotton aphid, green peach aphid, and sweet potato whitefly using procedures described in the following examples and reported in Table 2.
In each case of Table 2, the rating scale is as follows at 200 ppm.
Insecticidal Test for Cotton Aphid (Aphis Gossypii) in Foliar Spray Assay
Squash or cotton seedlings with fully expanded cotyledon leaves were trimmed to one cotyledon per plant and infested with cotton aphid (wingless adult and nymph) one day prior to chemical application. Each plant was examined before chemical application to ensure uniform infestation (ca. 30-70 aphids per plant). Compounds (2 mg) were dissolved in 2 mL of acetone/methanol (1:1) solvent, forming stock solutions of 1000 ppm. The stock solutions were diluted 5× with 0.025% Tween 20 in H2O to obtain a solution at 200 ppm. A hand-held Devilbiss aspirator type sprayer was used to apply the spray solutions until runoff to both sides of the squash cotyledon leaves. Four plants (4 replications) were used for each concentration of each compound. Reference plants (solvent check) were sprayed with the diluent only. Treated plants were held in a holding room for three days at approximately 25° C. and 40% RH before the number of live aphids on each plant was recorded. Insecticidal activity was measured by Corrected % Control using Abbott's correction formula and presented in Table 2 (see col. “APHIGO”): Corrected % Control=100*(X−Y)/X • where X=No. of live aphids on solvent check plants • Y=No. of live aphids on treated plants

[2] = tested on: Sweetpotato Whitefly-Crawler (Bemisia Tabaci); experiment: Insecticidal test for sweetpotato whitefly-crawler in foliar spray assay (col. BEMITA); format: in vivo; details: for pest or weed control at 200 ppm: Bemisia tabaci, read-out: BEMITA 200 ppm (Corrected % Control, rating)
How it was run: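 Percent control, Abbott-corrected against diluent-sprayed plants, from microscope counts of live nymphs 8-9 days after treatment. Test solution at 200 ppm in 0.025% aqueous Tween 20 applied to both leaf sides of egg-infested cotton after a 5-6 day hatch period (82° F, 50% RH).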

[3] = tested on: Green Peach Aphid (Myzus Persicae); experiment: Insecticidal test for green peach aphid in foliar spray assay (col. MYZUPE); format: in vivo; details: for pest or weed control at 200 ppm: Myzus persicae, 72 h, read-out: MYZUPE 200 ppm (Corrected % Control, rating)
How it was run: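 Corrected % control derives from microscope counts of live aphids per plant, treated against diluent-only checks, 3 days after foliar spraying at ~25 °C and 40% RH. Test solution was 200 ppm in 0.025% aqueous Tween 20, applied to both leaf sides of infested cabbage seedlings, four pots each.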

Structure (SMILES) | melting point [°C] | pest or weed control at 200 ppm [1] [%] | pest or weed control at 200 ppm ([2]; sweetpotato whitefly-crawler) [%] | pest or weed control at 200 ppm ([3]; green peach aphid) [%] | APHIGO 200 ppm (Corrected % Control, rating) [1] | BEMITA 200 ppm (Corrected % Control, rating) ([2]; sweetpotato whitefly-crawler) | MYZUPE 200 ppm (Corrected % Control, rating) ([3]; green peach aphid) | pest or weed control at 200 ppm ([2]; Abbott's correction formula) [%] | pest or weed control at 200 ppm ([3]; Abbott's correction formula) [%]
C=CCSCC(C)C(=O)Nc1sc(-c2cncc(F)c2)nc1C (stereo not drawn) [Compound 226] | 76 to 79 | 80 to 100 | 80 to 100 | 80 to 100 | – | – | – | – | –
CCN(C(=O)C(C)C)c1sc(-c2cncc(F)c2)nc1C [Compound 253] | – | 80 to 100 | 80 to 100 | 80 to 100 | – | – | – | – | –
CC(C[S+](C)[O-])C(=O)N(C)c1sc(-c2cccnc2)nc1Cl (stereo not drawn) [Compound 230] | – | 80 to 100 | 80 to 100 | 80 to 100 | – | – | – | – | –
CN(C(=O)OC(C)(C)C)c1cnc(-c2cncc(F)c2)s1 [Compound 243] | 148 to 151 | 80 to 100 | 80 to 100 | 80 to 100 | – | – | – | – | –
CCN(C(=O)CCSC)c1sc(-c2cncc(F)c2)nc1Cl [Compound 274] | – | 80 to 100 | 80 to 100 | 80 to 100 | – | – | – | – | –
CSC(C)CC(=O)Nc1sc(-c2cncc(F)c2)nc1C (stereo not drawn) [Compound 218] | 130 to 133 | 80 to 100 | 80 to 100 | 80 to 100 | – | – | – | – | –
CN(C(=O)CC[S+](C)[O-])c1sc(-c2cncc(F)c2)nc1Cl (stereo not drawn) [Compound 272] | 123 to 126 | 80 to 100 | 80 to 100 | 80 to 100 | – | – | – | – | –
CCN(C(=O)C(C)CS(C)(=O)=O)c1sc(-c2cccnc2)nc1C (stereo not drawn) [Compound 235] | – | – | – | – | A (80-100) | A (80-100) | A (80-100) | – | –
CN(C(=O)OC(C)(C)C)c1sc(-c2cccnc2)nc1Br [Compound 242, (4-bromo-2-pyridin-3-yl-thiazol-5-yl)-methyl-carbamic acid tert-butyl ester] | 88 to 91 | < 80 | 80 to 100 | 80 to 100 | – | – | – | – | –
CCN(C(=O)C(C)CSC)c1sc(-c2cccnc2)nc1C (stereo not drawn) [Compound 210] | – | 80 to 100 | 80 to 100 | 80 to 100 | – | – | – | – | –
CC(C[S+](C)[O-])C(=O)N(C)c1sc(-c2cncc(F)c2)nc1Cl (stereo not drawn) [Compound 270] | – | < 80 | 80 to 100 | 80 to 100 | – | – | – | – | –
CCN(C(=O)C(C)C[S+](C)[O-])c1sc(-c2cccnc2)nc1C (stereo not drawn) [Compound 234] | – | 80 to 100 | 80 to 100 | 80 to 100 | – | – | – | – | –
CCN(C(=O)C(C)CSC)c1sc(-c2cncc(F)c2)nc1Cl (stereo not drawn) [Compound 279] | – | 80 to 100 | 80 to 100 | 80 to 100 | – | – | – | – | –
CCN(C(=O)C(C)(C)CSC)c1sc(-c2cncc(F)c2)nc1C [Compound 255] | – | 80 to 100 | 80 to 100 | 80 to 100 | – | – | – | – | –
CSCC(C)C(=O)N(C)c1sc(-c2cncc(F)c2)nc1Cl (stereo not drawn) [Compound 262] | – | 80 to 100 | 80 to 100 | 80 to 100 | – | – | – | – | –
C=CC[S+]([O-])CC(C)C(=O)Nc1sc(-c2cncc(F)c2)nc1C (stereo not drawn) [Compound 229] | 170 to 174 | 80 to 100 | < 80 | 80 to 100 | – | – | – | – | –
CCN(C(=O)C(C)CSC)c1sc(-c2cncc(F)c2)nc1C (stereo not drawn) [Compound 240] | – | 80 to 100 | 80 to 100 | 80 to 100 | – | – | – | – | –
CCN(C(=O)OC(C)(C)C)c1cnc(-c2cncc(F)c2)s1 [Compound 245] | 89 to 92 | 80 to 100 | 80 to 100 | 80 to 100 | – | – | – | – | –
COc1ccc(CN(C(=O)OC(C)(C)C)c2cnc(-c3cccnc3)s2)cc1 [Compound 244] | 124 to 126 | < 80 | < 80 | < 80 | – | – | – | – | –
CSCCC(=O)N(C)c1cnc(-c2cccnc2)s1 [Compound 19, N-methyl-3-methylsulfanyl-N-(2-pyridin-3-yl-thiazol-5-yl)-propionamide] | – | < 80 | < 80 | 80 to 100 | – | – | – | – | –
CSCC(C)C(=O)N(C)c1sc(-c2cccnc2)nc1Cl (stereo not drawn) [Compound 227, N-(4-chloro-2-pyridin-3-yl-thiazol-5-yl)-2,N-dimethyl-3-methylsulfanyl-propionamide] | – | 80 to 100 | 80 to 100 | 80 to 100 | – | – | – | – | –
CCN(C(=O)C(C)C)c1sc(-c2cccnc2)nc1C [Compound 233] | – | 80 to 100 | 80 to 100 | 80 to 100 | – | – | – | – | –
CCN(C(=O)C(C)(C)CS(C)(=O)=O)c1sc(-c2cccnc2)nc1C [Compound 250] | – | < 80 | < 80 | 80 to 100 | – | – | – | – | –
CCN(C(=O)c1sc(C)nc1C(F)(F)F)c1sc(-c2cccnc2)nc1Cl [Compound 548] | 102 to 103 | – | – | – | – | – | – | 80 to 100 | 80 to 100
CN(C(=O)OC(C)(C)C)c1sc(-c2cccnc2)nc1Cl [Compound 228, (4-chloro-2-pyridin-3-yl-thiazol-5-yl)-methyl-carbamic acid tert-butyl ester] | 119 to 122 | 80 to 100 | 80 to 100 | 80 to 100 | – | – | – | – | –
Cc1nc(-c2cccnc2)sc1N(C)C(=S)NC(C)C [Compound 386] | 163 to 164 | – | 80 to 100 | 80 to 100 | – | – | – | – | –
CN(C(=O)C(C)(C)C[S+](C)[O-])c1cnc(-c2cccnc2)s1 (stereo not drawn) [Compound 80] | 118 to 122 | – | 80 to 100 | 80 to 100 | – | – | – | – | –
